According to patent US20230242654A1, “REAGENTS FOR EXPANDING CELLS EXPRESSING RECOMBINANT RECEPTORS” (Juno Therapeutics, Inc., priority 2017, published 2023):

Experiments:
anti-BCMA CAR+ T cells [1] = assay: Surface markers and proliferation at different T cell:bead ratios with or without lenalidomide; assay type: cell-based, human
Description: In another experiment, approximately 1.5×10^6 CAR+ T cells, prepared as described above, were added to wells of a 12-well plate and were incubated with beads from a 200 μg BCMA-conjugated bead composition at a ratio of CAR+ T cell to BCMA-conjugated bead of 1:0.3, 1:1 or 1:3 (approximately 0.5×10^6, 1.5×10^6, and 4.5×10^6 beads per well, respectively). As controls, 5 μg/mL anti-CD3 antibody was coated to wells (sub-optimal concentration for stimulation) or cells were seeded in the absence of any agent (no stimulation control). Each condition was incubated in the presence or absence of 5 μM lenalidomide. […] […] There also was a slight increase in PD-1 surface expression on CD8+ cells when stimulated with BCMA-conjugated beads at the higher BCMA bead concentration provided at the ratio of 1:3 CAR+ T cells to beads. The results are consistent with a finding that the BCMA concentration present during the incubation can differentially modulate surface marker expression on the CAR+ T cells.

anti-BCMA CAR T cells [2] = assay: Cytokines in culture supernatant 24 hours after addition of BCMA-conjugated beads; assay type: cell-based, human
Description: (§1) Cryofrozen anti-BCMA CAR T cells, produced substantially as described in Example 2 and formulated at a 1:1 ratio of CD4+ and CD8+ T cells, were thawed. Unless otherwise indicated, beads (diameter about 4.5 μm) from a 5 μg/ml or 50 μg/ml BCMA-conjugated bead composition, generated as described in Example 1, were added to the wells at a ratio of T cells to beads of 1:2 in the presence or absence of 5 μM lenalidomide. Cells were incubated up to 14 days and analyzed at various time points for cytokine secretion, cell expansion by flow cytometry for the EGFRt surrogate marker, and for cytolytic activity.
Twenty four hours after addition of BCMA-conjugated beads, the presence of TNF-α, IFNγ, and IL-2 in culture supernatants was assessed.
In a further exemplary study, two different anti-BCMA CAR T cell compositions were generated from different donors, each containing T cells expressing the same anti-BCMA CAR. The cells were thawed and incubated with beads (diameter about 4.5 μm) from a 5 μg/mL or 200 μg/mL BCMA-conjugated bead composition generated as described in Example 1. The incubation was carried out at a ratio of T cells to beads of 1:1 in the presence or absence of 1 μM or 5 μM lenalidomide. Twenty four hours after addition of BCMA-conjugated beads, IL-2 production by the anti-BCMA CAR+ T cells was assessed in culture supernatants.

anti-BCMA CAR+ T cells [3] = assay: Cell count and CTV proliferation after BCMA-conjugated bead stimulation; assay type: cell-based, human; settings: 5 μM lenalidomide
Description: as §1
Total cell count, monitored at day 4 (FIG. 9G) and day 7 (FIG. 9H), was increased following stimulation of anti-BCMA CAR+ T cells with beads from a 50 μg/mL BCMA-conjugated bead composition, but not 5 μg/mL BCMA-conjugated bead composition, compared to the cells present at the time of initiation of the incubation (dashed line).
To further assess proliferation, the cells containing anti-BCMA CAR-expressing T cells were labeled with the proliferation marker dye CELLTRACE VIOLET (CTV; ThermoFisher Scientific, Waltham Mass.) in accordance with the manufacturer's protocol prior to incubation with the BCMA-conjugated beads. Proliferation was assessed by dye dilution using flow cytometry on cells that were stimulated with beads from the 50 μg/mL BCMA-conjugated bead composition.

anti-BCMA CAR+ T cells [4] = assay: Expansion of EGFRt+ cells after BCMA-conjugated bead stimulation; assay type: cell-based, human; settings: 5 μM lenalidomide
Description: as §1
Four days and seven days after addition of BCMA-conjugated beads, the incubated cells were stained with CD4 or CD8 and with an anti-EGFR antibody to determine the percentage of cells positive for EGFRt as a surrogate for CAR+ T cells. At the time of plating, 26% of the CD4+ cells expressed anti-BCMA CAR and 39% of the CD8+ cells expressed anti-BCMA CAR as determined by staining with BCMA-Fc. The percent of EGFRt+CD4+ T cells increased from about 26% at the initiation of the incubation to greater than 40% by day 4 (FIG. 9J) and greater than 60% by day 7 (FIG. 9K) when the cells were incubated in the presence of beads from a 50 μg/mL BCMA-conjugated bead composition. […]

RPMI-8226 target cells [5] = assay: Cytolytic activity and IFN-gamma against target cells after bead incubation; assay type: cell-based
Description: Cytolytic activity of CAR+ T cells after incubation with BCMA-conjugated beads was assessed by incubation with the BCMA-expressing target cell line RPMI-8226, which is a BCMA+ multiple myeloma cell line. After seven days of incubation of anti-BCMA CAR+ T cells with BCMA-conjugated beads (5 μg/ml or 50 μg/ml) in the presence or absence of lenalidomide, the beads were removed from the cultures and the cells were plated with the RPMI-8226 target cells at a ratio of effector cells to target cells of 3:1 or 1:1 in the further presence or absence of 5 μM lenalidomide. To perform the cytolytic assay, the target RPMI-8226 cells were labeled with NucLight Red (NLR) to permit tracking of target cells by microscopy. Cytolytic activity was assessed by measuring the loss of viable target cells over a period of four days, as determined by red fluorescent signal (using the INCUCYTE® Live Cell Analysis System, Essen Bioscience). The number of viable cells was normalized to cells at day 0 prior to incubation with the RPMI-8226 target cells.
In a further exemplary study, anti-BCMA CAR+ T cells were untreated, or were incubated for 24 hours or for seven days with beads (diameter about 4.5 μm) from a 50 μg/mL BCMA-conjugated bead composition generated as described in Example 1 at a ratio of beads to cells of 1:1. The anti-BCMA CAR T+ cells were removed from the cultures and incubated with RPMI-8226 target cells at a 0.3:1 or 1:1 effector cell to target cell ratio. To assess cytokine response to the target cells after incubation with BCMA-conjugated beads, IFN gamma levels were measured in the supernatant.

RPMI-8226 = assay: Serial restimulation with BCMA-conjugated beads, then cytolytic activity; assay type: cell-based
Description: Anti-BCMA CAR T cell compositions were generated from three different donors, each containing T cells expressing the same anti-BCMA CAR, thawed, and were incubated for seven days with beads (diameter about 4.5 μm) from a 50 μg/mL BCMA-conjugated bead composition generated as described in Example 1 at a 1:1 ratio of beads to cells. The incubation was carried out in the presence of 5 μM lenalidomide or in the absence of lenalidomide (vehicle control). Cells were harvested after 7 days and replated for three further rounds up to 28 days, each round involving resetting to initial seeding density and incubating for an additional 7 days in the presence of the same concentration of lenalidomide.
At each reset after the pretreatment, cytolytic activity was assessed by incubation with the BCMA-expressing target cell line RPMI-8226 (labeled with NucLight Red (NLR)) at an effector to target cell (E:T) ratio of 1:1 in the further presence of or absence of lenalidomide. Cytolytic activity was assessed by measuring the loss of viable target cells over a period of up to 80-150 hours, as determined by red fluorescent signal (using the IncuCyte® Live Cell Analysis System, Essen Bioscience). Cells from each condition were plated in triplicate. The % cell killing compared to vehicle only control (set at 100%) was determined.

Anti-BCMA CAR-T cells = assay: Phenotype of anti-BCMA CAR T cells stimulated 7 days on BCMA beads with or without lenalidomide; assay type: cell-based, human
Description: (§2) Anti-BCMA CAR-T cells, generated from samples from representative healthy donors or multiple myeloma patient derived material, and cultured with 50 μg/mL BCMA-Fc conjugated beads (generated as described in Example 1) at a ratio of 1:1 bead:CAR+ T cell for 7 days, in the presence of […] lenalidomide or a vehicle control. Expression of CD25, PD-1, Tim3 and Lag3 on CAR T cells (using an antibody for surrogate CAR marker) cultured under the different conditions then was assessed by flow cytometry.

RPMI-8226 target cells [6] = assay: Cytolytic activity and cytokine production of bead-prestimulated CAR-T cells on target cells; assay type: cell-based
Description: as §2
Specifically, for pretreated cells in which pretreatment had been conducted in the presence of lenalidomide, the cells were cultured with the target cells in the presence of lenalidomide; likewise, for pretreated cells in which pretreatment had been conducted in the presence of vehicle, cells were cultured with the target cells in the presence of vehicle. Following the co-culture, cytolytic activity was assessed by measuring the loss of viable target cells over a period of seven days, as determined by red fluorescent signal. Percentage killing was normalized to anti-BCMA CAR T cells prestimulated on beads in the presence of vehicle. Cytokine production was assessed by ELISA from supernatant following culture with target cells for 24 hours. Experiments were performed twice in 3 donors. […]

anti-BCMA CAR T cells [7] = assay: Cytokine production after 24 hours BCMA bead stimulation with or without lenalidomide; assay type: cell-based, human
Description: In another study, recombinant human BCMA-conjugated beads were used to stimulate CAR T cells at various concentrations to titrate the magnitude of stimulation, either low ([…]), medium ([…]), and high (200 μg/mL) stimulation. […] Cells were stimulated with BCMA conjugated beads for 24 hours in the presence of 0.1 μM or 1.0 μM lenalidomide, or vehicle control. A protein transport inhibitor was added in the final hours of incubation, and cells were stained for intracellular IL-2, IFN-γ, and TNF-α.

[8] = system: Healthy donor-or patient-derived CART cells; assay: Cytokine production on BCMA or BCMA/PD-L1 conjugated beads; assay type: cell-based, human; settings: 1 μM, in the presence of PD-L1; versus vehicle
Description: In another study, cells were cultured in the presence of BCMA beads generated as described in Example 1, with or without additional conjugation of human recombinant PD-L1-Fc. Healthy donor-or patient-derived CART cells were stimulated in the presence of BCMA-conjugated beads or BCMA/PD-L1 conjugated beads for 24 hours in the presence of 1 μM lenalidomide. Cytokine production was measured in the supernatant. […] The results were consistent with a conclusion that anti-BCMA CAR-T cytokine production following incubation with BCMA-conjugated beads was increased by lenalidomide in the presence of PD-L1-mediated inhibition.

[9] = medium stimulation (50 μg BCMA beads), 24 hours, 1 μM

`Nc1cccc2c1CN(C1CCC(=O)NC1=O)C2=O` (stereo not shown) [lenalidomide] was tested, and the “proliferative capacity of T cells (CTV)” value (anti-BCMA CAR+ T cells [1]; 5 μM, three days with 200 μg BCMA beads at 1:1, versus vehicle) was “increased the proliferative capacity of T cells”, the “surface expression of CD25 in CD4+ and CD8+ T cells” value (anti-BCMA CAR+ T cells [1]; lenalidomide present during BCMA bead or anti-CD3 stimulation) was “further increased the extent of surface expression of CD25” and the “cytokine (IL-2) production” value (anti-BCMA CAR T cells [2]; 1 μM or 5 μM, 200 or 5 μg/mL beads) was “increased cytokine production in the presence of both the high and low antigen stimulation”. For the same molecule, the “BCMA-induced CAR+ T cell cytokine production” value (anti-BCMA CAR T cells [2]; 5 μM lenalidomide, 24 hours) was “increased BCMA-induced CAR+ T cell cytokine production”, the “proliferation (cell count)” value (anti-BCMA CAR+ T cells [3]; 50 ug beads, day 7) was “small increase in proliferation” and the “proliferation as assessed by CTV dilution” value (anti-BCMA CAR+ T cells [3]; 50 μg/mL beads, day 4 but not day 7) was “slight delay in proliferation”. For the same molecule, the “extent of CAR+ T cell expansion” value (anti-BCMA CAR+ T cells [4]) was “did not substantially impact the extent of CAR+ T cell expansion”, the target cell viability (RPMI-8226 target cells [5]; RPMI 8226 cells cultured in the presence of lenalidomide, no T cells) was “did not directly influence target cell viability” and the “cytolytic activity of the CAR+ T cells” value (RPMI-8226 target cells [5]; lenalidomide during the seven day bead incubation prior to the killing assay) was “increased cytolytic activity of the CAR+ T cells”. The killing activity (RPMI-8226 target cells [5]; lenalidomide present during the cell killing assay) was “did not substantially affect killing activity”, the killing efficacy (RPMI-8226; further donor (FIG. 10B), all time points) was “increased killing efficacy” and the cytolytic activity (RPMI-8226; preincubated with 5 μM lenalidomide 7 or 14 days, exemplary donor) was “exhibited greater cytolytic activity”. For the same molecule, the killing efficacy (RPMI-8226; preincubated with lenalidomide 14 or 21 days compared to day 7) was “overall decrease in killing efficacy”, the “CAR+ viability” value (Anti-BCMA CAR-T cells; 1 μM, 7 days on 50 μg/mL BCMA beads, 3 healthy donors) was “significantly increased CAR+ viability” and the “surface CD25 expression (MFI)” value (Anti-BCMA CAR-T cells; 1 μM, 7 days on BCMA beads) was “increasing CD25 expression”. For the same molecule, the “surface PD-1 expression (MFI)” value (Anti-BCMA CAR-T cells; 1 μM, 7 days on BCMA beads) was “reduced PD-1 expression”, the total cell count (Anti-BCMA CAR-T cells; 1 μM, 7 days on BCMA beads) was “did not alter the total cell count” and the “percentage positive for Lag3 expression” value (Anti-BCMA CAR-T cells; CD4+ and CD8+ CAR+ populations) was “increased”. For the same molecule, the “percentage of PD-1+ cells” value (Anti-BCMA CAR-T cells; CD4+ population) was “decrease in the percentage of PD-1+ cells”, the “surface expression of Tim3” value (Anti-BCMA CAR-T cells; CD8+ population) was “increased the surface expression of Tim3” and the “percentage CAR+” value (Anti-BCMA CAR-T cells; vehicle- versus lenalidomide-treated) was “no significant differences”. The cytokine production (RPMI-8226 target cells [6]; 1 μM lenalidomide during prestimulation versus vehicle) was “trend toward increased cytokine production”, the cytolytic function (RPMI-8226 target cells [6]; 1 μM lenalidomide during the prestimulation period) was “preserved cytolytic function” and the “percentage of IFN-γ+ and TNF-α+ intracellular staining” value (anti-BCMA CAR T cells [7]; 0.1 μM or 1.0 μM, all stimulation levels, CD4+ and CD8+) was “increased the percentage”. The “percentage of IL-2+ CAR+ T cells” value (anti-BCMA CAR T cells [7]; 5-μg stimulation) was “increasing the percentage”, the “percentage of IL-2+ CAR+ T cells” value (anti-BCMA CAR T cells [7]; 50-μg and 200-μg stimulation) was “decreasing the percentage” and the “CAR T cytokine production” value (anti-BCMA CAR T cells [7]; absence of stimulation) was “had no effect on CAR T cytokine production”. For the same molecule, the “increase in IL-2 concentration compared with vehicle control” value (anti-BCMA CAR T cells [7]; [9]) was 200%, the “increase in TNF-α concentration compared with vehicle control” value (anti-BCMA CAR T cells [7]; [9]) was 200% and the “IFN-γ concentration compared with vehicle control” value (anti-BCMA CAR T cells [7]; medium stimulation, 24 hours) was “donor-dependent increases”. For the same molecule, the secreted cytokine levels [8] was “potentiated secreted cytokine levels”.
